{"source": "patent US11623909B2", "about": "“Water-based extraction and purification processes for cannabinoid acids” (MEDPHARM IOWA LLC, priority 2019, dated 2023)", "key": {"[1]": {"assay": "Solubility limit of THCA anions in aqueous NaOH wash (experiment A, 1:1 NaOH:THCA)", "format": "physicochemical", "settings": "NaOH:THCA 1:1 mol:mol, room temperature, conditions of experiment A", "experimental": "‘Spent’ CO2-stripped biomass was aliquoted out to 50 g portions (˜6 g THCA). Water (400 ml) and a 40 wt % solution of NaOH (see Tables 4-6) was added to the plant material. The mixture was allowed to stir for 10 minutes at 500-1000 RPM (speed was adjusted to minimize foaming). Solid materials were filtered off with coffee filters. The process was repeated for a total of 4 (Expt A) to 5 (Expts B&C) iterations. A final rinse 2×200 ml with no NaOH was stirred for 1 minute then filtered off. All filtrate was analyzed by HPLC prior to acidification. Acidification to pH 2-3 with HCl, as described above, yielded a precipitate which was filtered off and dried. Both the filtrate and dried material were analyzed by HPLC. All extractions were done at room temperature.\nExperiment A utilized a NaOH:THCA (mol:mol) ratio of 1:1 (see Table 4). […] The amount of THCA detected in the filtrate increased with each successive wash until a rinse with no added NaOH was conducted for 1 minute. […] The precipitate was filtered off, collected, and analyzed by HPLC. The filtrate was acidified to pH 2.16 to yield a tan/brown precipitate, filter, collected and analyzed by HPLC. […] The final filtrate (left over after harvesting THCA) contained THCA quantities that were below the limit of quantification (less than 10 mg/400 g wash/rinse; that is <0.001 wt % THCA)."}, "[2]": {"assay": "HPLC of acidified solution after precipitation of cannabinoid acid (amount remaining in solution)", "format": "physicochemical", "description": "Precipitation of crude extract (CBDA) by acidification was done with either hydrochloric acid or nitric acid. No difference was observed between the two since the precipitation was pH driven. 1.0-1.5 equivalents of acid (relative to total base) was sufficient for precipitation of the crude extract. The crude extract had CBDA purities on the order of 40-50% and were independent of the amount of acid added. E.g. adding fewer than 1.0 equivalents in an attempt to selectively precipitate either impurities or CBDA yielded crude material with similar purities. Addition of more acid yielded more precipitate of similar purity (up to 1.0-1.5 equivalents). Addition of more than 1.5 equivalents yielded no additional precipitate. Though when the mixture was allowed to sit overnight more white precipitate formed. […]\n‘Spent’ CO2-stripped biomass was aliquoted out to 50 g portions (˜6 g THCA). […] All filtrate was analyzed by HPLC prior to acidification. […] Both the filtrate and dried material were analyzed by HPLC. […]\nExperiment A utilized a NaOH:THCA (mol:mol) ratio of 1:1 (see Table 4). […] The amount of THCA detected in the filtrate increased with each successive wash until a rinse with no added NaOH was conducted for 1 minute. […] The precipitate was filtered off, collected, and analyzed by HPLC. The filtrate was acidified to pH 2.16 to yield a tan/brown precipitate, filter, collected and analyzed by HPLC. […]"}}, "data": [{"smiles": "CCCCCc1cc2c(c(O)c1C(=O)O)[C@@H]1C=C(C)CC[C@H]1C(C)(C)O2", "note": "[THCA]", "values": [{"measurement": "solubility limit for THCA anions", "setting": "[1]", "value": "around 0.3 wt %"}, {"measurement": "THCA in final filtrate after acidification (below limit of quantification)", "setting": "[2]; filtrate after acidification to pH 2-3 with HCl and harvesting THCA, experiment A", "value": "< 0.001", "unit": "wt % THCA"}]}, {"smiles": "C=C(C)[C@@H]1CCC(C)=C[C@H]1c1c(O)cc(CCCCC)c(C(=O)O)c1O", "note": "[CBDA]", "values": [{"measurement": "CBDA remaining in acidified solution (loss)", "setting": "[2]; acidified solution pH~4, after precipitation of crude extract", "value": "~7", "unit": "μg CBDA/ml"}]}]}
